Structures are written as SMILES. Where a name gives a salt, the structure may show the parent alone.

The target in this test is T1, full-length human PKCι (Homo sapiens, UniProt P41743).
T1 construct: Recombinant, full-length human PKCι expressed in Sf21 insect cells is also commercially available; purchased; host or cells: Sf21 insect cells
T1 sequence (P41743 1-596): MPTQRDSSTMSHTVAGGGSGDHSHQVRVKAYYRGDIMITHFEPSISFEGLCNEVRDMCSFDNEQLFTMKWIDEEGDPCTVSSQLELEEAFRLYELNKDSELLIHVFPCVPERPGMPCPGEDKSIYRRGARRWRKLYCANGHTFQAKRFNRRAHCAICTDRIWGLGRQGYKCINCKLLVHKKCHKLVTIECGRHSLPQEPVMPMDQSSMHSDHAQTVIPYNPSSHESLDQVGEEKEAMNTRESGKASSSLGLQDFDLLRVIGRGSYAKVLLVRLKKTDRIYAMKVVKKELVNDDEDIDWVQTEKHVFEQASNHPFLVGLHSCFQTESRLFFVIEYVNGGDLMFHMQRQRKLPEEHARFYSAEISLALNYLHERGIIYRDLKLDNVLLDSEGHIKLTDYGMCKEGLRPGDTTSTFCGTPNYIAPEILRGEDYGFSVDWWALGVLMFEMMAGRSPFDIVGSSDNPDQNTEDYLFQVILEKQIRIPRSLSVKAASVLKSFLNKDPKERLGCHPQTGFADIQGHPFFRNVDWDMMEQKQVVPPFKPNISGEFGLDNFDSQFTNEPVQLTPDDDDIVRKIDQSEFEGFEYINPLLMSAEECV
The test can be described thus: PKCι IC50 IMAP assay, full-length PKCι at 150 μM ATP. As to conditions: read-out: IC50 in IMAP assay against full length PKCi at 150 μM ATP. The test is classed as biochemical. The essentials:
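Full-length human PKCι from Sf21 cells, typically 15 pM, with 100 nM 5FAM-PKCε pseudosubstrate peptide and 150 μM ATP (5× apparent KM), 60 min at room temperature, 4% DMSO. IMAP fluorescence polarisation read-out; inhibition normalised to no-compound and no-enzyme controls, IC50 from curve fit.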
In general, IC50 refers to the concentration that inhibits the measured activity by half. In the case of `CN1CCN(c2cccc(Nc3cc(-c4nc(N5CC[C@@H](CO)C5)c5c(C6CC6)cncc5n4)ccn3)c2)CC1` [Example 721, [(R)-1-(5-Cyclopropyl-2-{2-[3-(4-methyl-piperazin-1-yl)-phenylamino]-pyridin-4-yl}-pyrido[3,4-d]pyrimidin-4-yl)-pyrrolidin-3-yl]-methanol], the IC50 is under 100 nM. For `CN1CCN(c2cccc(Nc3cc(-c4nc(N5CC[C@H](CO)C5)c5c(C6CC6)cncc5n4)ccn3)c2)CC1` [Example 722, [(S)-1-(5-Cyclopropyl-2-{2-[3-(4-methyl-piperazin-1-yl)-phenylamino]-pyridin-4-yl}-pyrido[3,4-d]pyrimidin-4-yl)-pyrrolidin-3-yl]-methanol] the value was under 100 nM; for `CCNC(=O)C1CCN(c2nc(-c3ccnc(Nc4c(F)cccc4F)c3)nc3cncc(C4CC4)c23)CC1` [Example 723, 1-{5-Cyclopropyl-2-[2-(2,6-difluoro-phenylamino)-pyridin-4-yl]-pyrido[3,4-d]pyrimidin-4-yl}-piperidine-4-carboxylic acid ethylamide], 1000 to 10000 nM; for `Fc1cc(C2CC2)nc(F)c1Nc1cc(-c2nc(N3CCNCC3)c3c(C4CC4)cncc3n2)ccn1` [Example 724, (6-Cyclopropyl-2,4-difluoro-pyridin-3-yl)-[4-(5-cyclopropyl-4-piperazin-1-yl-pyrido[3,4-d]pyrimidin-2-yl)-pyridin-2-yl]-amine; bis-trifluoroacetic salt], under 100 nM. For `Fc1nc(C2CC2)ccc1Nc1cc(-c2nc(N3CCNCC3)c3c(C4CC4)cncc3n2)ccn1` [Example 725, (6-Cyclopropyl-2-fluoro-pyridin-3-yl)-[4-(5-cyclopropyl-4-piperazin-1-yl-pyrido[3,4-d]pyrimidin-2-yl)-pyridin-2-yl]-amine; bis-trifluoroacetic acid salt] the value was under 100 nM; for `CNC(=O)C1CCN(c2nc(-c3ccnc(Nc4c(F)cccc4F)c3)nc3cncc(C4CC4)c23)C1` (stereo not shown) [Example 726, 1-{5-Cyclopropyl-2-[2-(2,6-difluoro-phenylamino)-pyridin-4-yl]-pyrido[3,4-d]pyrimidin-4-yl}-pyrrolidine-3-carboxylic acid methylamide], 100 to 1000 nM; for `CN1CCN(c2cccc(Nc3cc(-c4nc(N5CC[C@H](O)C5)c5c(C6CC6)cncc5n4)ccn3)c2)CC1` [Example 727, (S)-1-(5-Cyclopropyl-2-{2-[3-(4-methyl-piperazin-1-yl)-phenylamino]-pyridin-4-yl}-pyrido[3,4-d]pyrimidin-4-yl)-pyrrolidin-3-ol], under 100 nM. On to `CN1CCN(c2nc(-c3ccnc(Nc4cccc(N5CCC(O)CC5)c4)c3)nc3cncc(C4CC4)c23)CC1` [Example 728, 1-(3-{4-[5-Cyclopropyl-4-(4-methyl-piperazin-1-yl)-pyrido[3,4-d]pyrimidin-2-yl]-pyridin-2-ylamino}-phenyl)-piperidin-4-ol], for which the IC50 is 100 to 1000 nM. For `OC1CCN(c2nc(-c3ccnc(Nc4cccc(N5CCNCC5)c4)c3)nc3cncc(C4CC4)c23)CC1` [Example 729, 1-{5-Cyclopropyl-2-[2-(3-piperazin-1-yl-phenylamino)-pyridin-4-yl]-pyrido[3,4-d]pyrimidin-4-yl}-piperidin-4-ol] the value was under 100 nM. In the case of `CC(Nc1cc(-c2nc(N3CCNCC3)c3c(C4CC4)cncc3n2)ccn1)c1cnn(C)c1` (stereo not shown) [Example 730, [4-(5-Cyclopropyl-4-piperazin-1-yl-pyrido[3,4-d]pyrimidin-2-yl)-pyridin-2-yl]-[1-(1-methyl-1H-pyrazol-4-yl)-ethyl]-amine], the IC50 was under 100 nM. With `Fc1nc(N2CCOCC2)ccc1Nc1cc(-c2nc(N3CCNCC3)c3c(C4CC4)cncc3n2)ccn1` [Example 731, [4-(5-Cyclopropyl-4-piperazin-1-yl-pyrido[3,4-d]pyrimidin-2-yl)-pyridin-2-yl]-(2-fluoro-6-morpholin-4-yl-pyridin-3-yl)-amine], the IC50 was under 100 nM. For `OC1CCN(c2nc(-c3ccnc(Nc4cnn(CC5CCNCC5)c4)c3)nc3cncc(C4CC4)c23)CC1` [Example 732, 1-{5-Cyclopropyl-2-[2-(1-piperidin-4-ylmethyl-1H-pyrazol-4-ylamino)-pyridin-4-yl]-pyrido[3,4-d]pyrimidin-4-yl}-piperidin-4-ol] the value was under 100 nM.

On to `Clc1cc(-c2nc(N3CCN[C@@H](COCc4ccccc4)C3)c3c(C4CC4)cncc3n2)ccn1` [Example 733, 4-((R)-3-Benzyloxymethyl-piperazin-1-yl)-2-(2-chloro-pyridin-4-yl)-5-cyclopropyl-pyrido[3,4-d]pyrimidine], for which the IC50 lay within 1000 to 10000 nM. For `c1cc(Nc2cc(-c3nc(N4CCNCC4)c4c(C5CC5)cncc4n3)ccn2)cc(C2CC2)c1` [Example 734, (3-Cyclopropyl-phenyl)-[4-(5-cyclopropyl-4-piperazin-1-yl-pyrido[3,4-d]pyrimidin-2-yl)-pyridin-2-yl]-amine] the value was under 100 nM; for `CN1CCN(C(=O)C2CCN(c3nc(-c4ccnc(Nc5c(F)cccc5F)c4)nc4cncc(C5CC5)c34)CC2)CC1` [Example 735, (1-{5-Cyclopropyl-2-[2-(2,6-difluoro-phenylamino)-pyridin-4-yl]-pyrido[3,4-d]pyrimidin-4-yl}-piperidin-4-yl)-(4-methyl-piperazin-1-yl)-methanone], 100 to 1000 nM; for `CN(C)CCNC(=O)C1CCN(c2nc(-c3ccnc(Nc4c(F)cccc4F)c3)nc3cncc(C4CC4)c23)CC1` [Example 736, 1-{5-Cyclopropyl-2-[2-(2,6-difluoro-phenylamino)-pyridin-4-yl]-pyrido[3,4-d]pyrimidin-4-yl}-piperidine-4-carboxylic acid (2-dimethylamino-ethyl)-amide], under 100 nM.

For the compound `CN1CCN(c2cccc(Nc3cc(-c4nc(N5CCC[C@H](O)C5)c5c(C6CC6)cncc5n4)ccn3)c2)CC1` [Example 737, (S)-1-(5-Cyclopropyl-2-{2-[3-(4-methyl-piperazin-1-yl)-phenylamino]-pyridin-4-yl}-pyrido[3,4-d]pyrimidin-4-yl)-piperidin-3-ol], the IC50 is under 100 nM. For `CN1CCN(c2cccc(Nc3cc(-c4nc(N5CC[C@@H](O)C5)c5c(C6CC6)cncc5n4)ccn3)c2)CC1` [Example 738, (R)-1-(5-Cyclopropyl-2-{2-[3-(4-methyl-piperazin-1-yl)-phenylamino]-pyridin-4-yl}-pyrido[3,4-d]pyrimidin-4-yl)-pyrrolidin-3-ol] the value was under 100 nM. For the compound `COCCNC(=O)C1CCN(c2nc(-c3ccnc(Nc4c(F)cccc4F)c3)nc3cncc(C4CC4)c23)CC1` [Example 739, 1-{5-Cyclopropyl-2-[2-(2,6-difluoro-phenylamino)-pyridin-4-yl]-pyrido[3,4-d]pyrimidin-4-yl}-piperidine-4-carboxylic acid (2-methoxy-ethyl)-amide], the IC50 lay within 100 to 1000 nM. `N#Cc1cc(F)c(Nc2cc(-c3nc(N4CCNCC4)c4c(C5CC5)cncc4n3)ccn2)c(F)c1` [Example 740, 4-[4-(5-Cyclopropyl-4-piperazin-1-yl-pyrido[3,4-d]pyrimidin-2-yl)-pyridin-2-ylamino]-3,5-difluoro-benzonitrile]: the IC50 lay in the range of 100 to 1000 nM. For `O=C(C1CCN(c2nc(-c3ccnc(Nc4c(F)cccc4F)c3)nc3cncc(C4CC4)c23)CC1)N1CCNCC1` [Example 741, (1-{5-Cyclopropyl-2-[2-(2,6-difluoro-phenylamino)-pyridin-4-yl]-pyrido[3,4-d]pyrimidin-4-yl}-piperidin-4-yl)-piperazin-1-yl-methanone] the value was 100 to 1000 nM; for `NC(=O)c1ccc(Nc2cc(-c3nc(N4CCNCC4)c4c(C5CC5)cncc4n3)ccn2)cc1` [Example 742, 4-[4-(5-Cyclopropyl-4-piperazin-1-yl-pyrido[3,4-d]pyrimidin-2-yl)-pyridin-2-ylamino]-benzamide], under 100 nM. For `c1ccn2nc(Nc3cc(-c4nc(N5CCNCC5)c5c(C6CC6)cncc5n4)ccn3)nc2c1` [Example 743, [4-(5-Cyclopropyl-4-piperazin-1-yl-pyrido[3,4-d]pyrimidin-2-yl)-pyridin-2-yl]-[1,2,4]triazolo[1,5-a]pyridin-2-yl-amine] the value was under 100 nM; for `CNCCNC(=O)C1CCN(c2nc(-c3ccnc(Nc4c(F)cccc4F)c3)nc3cncc(C4CC4)c23)CC1` [Example 744, 1-{5-Cyclopropyl-2-[2-(2,6-difluoro-phenylamino)-pyridin-4-yl]-pyrido[3,4-d]pyrimidin-4-yl}-piperidine-4-carboxylic acid (2-methylamino-ethyl)-amide], under 100 nM. Regarding `N#Cc1cccc(Nc2cc(-c3nc(N4CCNCC4)c4c(C5CC5)cncc4n3)ccn2)n1` [Example 746, 6-[4-(5-Cyclopropyl-4-piperazin-1-yl-pyrido[3,4-d]pyrimidin-2-yl)-pyridin-2-ylamino]-pyridine-2-carbonitrile], the concentration for half-maximal inhibition (IC50) was under 100 nM.

Values taken from patent US9914730B2, “Azaquinazoline inhibitors of Atypical protein Kinase C” (Ignyta, Inc., priority 2012, dated 2018).
